Reference: paper doi:10.1101/2021.05.17.444520v1 (biorxiv, 2021)

Target: T1, α2wt (Homo sapiens, UniProt P23416)
T1 sequence (P23416 28-452): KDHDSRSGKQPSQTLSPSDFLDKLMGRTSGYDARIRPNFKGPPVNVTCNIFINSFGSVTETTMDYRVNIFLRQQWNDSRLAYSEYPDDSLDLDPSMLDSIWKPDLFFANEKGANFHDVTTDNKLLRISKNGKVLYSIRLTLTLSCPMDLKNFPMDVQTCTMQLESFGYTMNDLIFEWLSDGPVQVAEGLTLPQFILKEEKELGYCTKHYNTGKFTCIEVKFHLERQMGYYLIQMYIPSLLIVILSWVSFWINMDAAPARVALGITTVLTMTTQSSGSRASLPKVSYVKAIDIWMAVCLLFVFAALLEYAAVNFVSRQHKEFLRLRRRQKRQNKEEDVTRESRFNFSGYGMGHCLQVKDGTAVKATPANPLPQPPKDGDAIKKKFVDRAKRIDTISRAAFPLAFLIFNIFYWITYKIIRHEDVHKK
Experiment: whole-cell patch clamp
Format: cell-based
Settings: agonist; pH 7.4; -80 mV

EC50: Dose response of glycine from (A)
Structure (SMILES): NCC(=O)O [glycine]
